The record followed here is patent US9308198B2, “Treatment, prevention, and reversal of alcohol-induced brain disease” (priority 2006, dated 2016).

SMILES strings stand for the structures. Like-named read-outs stand apart in the source and are kept apart here.

One assay concerns AChE mRNA. The conditions noted are these: chronic ethanol feeding; temporal lobe, hypothalamus, cerebellum. From the text: (§1) Male (˜200 g) Long Evans rats (Charles River Laboratories, Cambridge, Mass.) were fed isocaloric liquid diets (BioServ, Frenchtown, N.J.) in which ethanol comprised 0% or 37% of the caloric content (9.25% v/v) for 6 weeks (Yeon et al., Hepatology 38:703 (2003)). A chow fed control group was also studied. Rats were monitored daily to ensure equivalent food consumption and maintenance of body weight. Upon sacrifice, the brains were harvested and either immersion fixed in Histochoice fixative (Amresco Corp., Solon, Ohio) for paraffin embedding, or sliced fresh to micro-dissect temporal cortex, hypothalamus, and cerebellum. The fresh tissue blocks were snap frozen in a dry ice-methanol bath and stored at −80° C. for mRNA and protein studies.
(§2) Total RNA was isolated from brain tissue using TRIzol reagent (Invitrogen, Carlsbad, Calif.) according to the manufacturer's protocol. RNA concentrations and purity were determined from the absorbances measured at 260 nm and 280 nm. […] Real time quantitative RT-PCR was used to measure mRNA levels of insulin, IGF-I, and IGF-II growth factors, their corresponding receptors, neuronal (Hu), astrocytic (glial fibrillary acidic protein; GFAP), oligodendroglial (myelin-associated glycoprotein-1; MAG-1), microglial (AIF1), and endothelial (endothelin-1; ET-1) cell genes, acetyl cholinesterase (AChE), and choline acetyltransferase (ChAT). […]

Another assay deals with ChAT mRNA. Conditions: chronic ethanol feeding; hypothalamus and cerebellum.
Source text: as §1, §2

A further assay concerns insulin receptor. Conditions: chronic ethanol feeding; temporal lobe, hypothalamus, and cerebellum.
Source text: as §1
(§3) Fresh frozen tissue (˜100 mg) was homogenized in 5 volumes of NP-40 lysis buffer (50 mM Tris-HCl, pH 7.5, 1% NP-40, 150 mM NaCl, 1 mM EDTA, 2 mM EGTA) containing protease inhibitors (1 mM PMSF, 0.1 mM TPCK, 1 μg/ml aprotinin, 1 μg/ml pepstatin A, 0.5 μg/ml leupeptin, 1 mM NaF, 1 mM Na4P2O7). Protein concentrations were determined using the bicinchoninic acid (BCA) assay (Pierce, Rockford, Ill.). Exploratory studies determined the amounts of protein and concentrations of radiolabeled ligand required to achieve 20% specific binding. Insulin receptor binding assays were performed using 100 μg protein. IGF-I binding assays required 25 μg protein per sample, and IGF-II receptor binding assays were optimized using 10 μg protein. Competitive equilibrium binding assays were used to assess growth factor binding in relation to ethanol exposure. For total binding, duplicate individual protein samples were incubated in 100 μl reactions containing binding buffer (100 mM HEPES, pH 8.0, 118 mM NaCl, 1.2 mM MgSO4, 8.8 mM dextrose, 5 mM KCl, 1% bovine serum albumin) and 100 nCi/ml of [^125I] (2000 Ci/mmol; […]) insulin, IGF-I, or IGF-II. To measure non-specific binding, replicate samples were identically prepared but with the addition of 0.1 μM unlabeled (cold) ligand.
(§4) All reactions were performed in 1.5 ml Eppendorff tubes, and the incubations were performed at 4° C. for 16 hours with gentle platform agitation. Bound radiolabeled tracer was then precipitated by adding 500 μl of 0.15% bovine gamma globulin (prepared in 100 mM Tris-HCl, pH 8.0) followed by 400 μl 37.5% polyethylene glycol 8000 (PEG-8000; prepared in 100 mM Tris-HCl, pH 8.0) to each tube. […] The samples were counted for 1 minute in an LKB CompuGamma CS Gamma counter. Specific binding was calculated by subtracting fmol of non-specific binding, i.e., amount bound in the presence of cold ligand, from the total fmol bound (absence of unlabeled competitive ligand). The results were analyzed and plotted using the GraphPad Prism 4 software (GraphPad Software, Inc., San Diego, Calif.). […]

Another assay relates to IGF-I receptor. Conditions: chronic ethanol feeding; temporal lobe, hypothalamus, and cerebellum.
Source text: as §1, §3, §4

The test system of another assay is IGF-II receptor. The conditions noted are these: chronic ethanol feeding.
Source text: as §1, §3, §4

On to `CCO` [ethanol], for which the “expression of AChE” value with AChE mRNA was “did not significantly alter”. In the assay with ChAT mRNA, the “ChAT mRNA expression” value was “significantly reduced”. The insulin receptor binding entry in the assay on insulin receptor is listed as “significantly reduced”. Also, the IGF-I receptor binding entry in the assay on IGF-I receptor was “significantly reduced”. In addition, the IGF-II receptor binding entry in the assay on IGF-II receptor (cerebella, relative to control rats) is on record as “significantly lower”; in the assay on IGF-II receptor (temporal lobe and hypothalamus) it was “relatively preserved”.
